# According to patent US20240156901A1, “GAL3BP POLYPEPTIDE COMPOSITIONS AND METHODS FOR TREATMENT OF CANCER AND DETERMINING TREATMENT RESPONSIVENESS” (UNIVERSITY OF PITTSBURGH-OF THE COMMONWEALTH SYSTEM OF …, priority 2021, published 2024):
# Assays:
# [1] = system: bone-marrow derived macrophages (BMDMs); assay: Scratch-wound healing assay, BMDM migration; assay type: cell-based, mouse
# Experimental: BMDMs were isolated from male and female C57BL/6 mice as previously described (Ying W et al., 2013). Briefly, femur bones were isolated from mice, and IMDM (ATCC) supplemented with 10% FBS and P/S was used to flush the bone marrow into a petri dish. After 4-6-hour incubation, the floating cells were collected and resuspended in the medium with 20 ng/mL M-CSF (PrproTech). On day 6, the fully differentiated cells were designated as an M0 state. To induce BMDM polarization toward an M1 state, 100 ng/mL LPS (Invitrogen) and 50 ng/mL IFNγ (PrproTech) were added to the M0 cells for 24 hours. To induce BMDM polarization toward an M2 state, 20 ng/mL IL-4 (PrproTech) was added to the M0 cells for 72 hours.
# BMDM were polarized to the indicated status (M0, M1, or M2) and seeded in 12-well plates at 80-90% confluency. The cells were switched to the medium without FBS for 6 hours of starvation. Scratches were made using pipettor tips and fresh IMDM with indicated recombinant proteins and/or peptides were added. Images of the scratches were captured at indicated times. For the SIM-A9 scratch-wound healing assay, 12-well plates were coated with 10 μg/mL fibronectin (Sigma-Aldrich) at 37° C. overnight before seeding cells.
# [2] = target: T1, binding of CHI3L1 and Gal3 (Homo sapiens, UniProt P36222); assay: Co-IP with Gal3 antibody in THP-1 cells treated with peptides; details: 20 μM for 24 hours
# T1 construct: endogenous in cells; host or cells: THP-1 cells
# T1 sequence (P36222 22-383): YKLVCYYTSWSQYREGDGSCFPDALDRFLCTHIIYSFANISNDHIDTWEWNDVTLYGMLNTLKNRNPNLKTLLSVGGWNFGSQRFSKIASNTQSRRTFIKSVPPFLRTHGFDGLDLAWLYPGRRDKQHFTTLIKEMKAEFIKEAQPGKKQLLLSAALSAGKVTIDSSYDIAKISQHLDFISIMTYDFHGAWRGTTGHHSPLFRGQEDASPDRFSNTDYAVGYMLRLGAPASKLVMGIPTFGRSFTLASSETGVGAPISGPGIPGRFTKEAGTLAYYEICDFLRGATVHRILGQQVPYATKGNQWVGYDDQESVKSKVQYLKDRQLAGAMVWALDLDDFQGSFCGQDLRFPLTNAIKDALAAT
# Experimental: TS603 cells overexpressing CHI3L1 with V5 tag (TS603 CHI3L1_V5_OE) or THP-1 cells treated with the peptides were collected and protein-protein interaction was crosslinked with 2 mM Dithiobis (succinimidyl propionate, DSP). Membrane proteins were extracted with the Membrane Protein Extraction Kit (ThermoFisher, Cat #89842) and ˜500 μg of protein was used for Co-IP assay by the Co-Immunoprecipitation Kit (ThermoFisher, Cat #26149).
# For in vivo THP-1 cell or in vitro recombinant protein Co-IP experiments, additional following antibodies were used: Mouse anti-CHI3L1 (Santa Cruz Biotechnology, Cat #SC-393590), Rat anti-Galectin-3 (Santa Cruz Biotechnology, Cat #SC-23938), anti-Galectin-3BP (Santa Cruz Biotechnology, Cat #SC-374541), Rabbit anti-CHI3L1 (Cell Signaling Technology, Cat #47066), and Rat IgG (BioXCell, Cat #BE0090).
# [3] = system: Gal3/CHI3L1; assay: Inhibition of Gal3/CHI3L1 by Gal3BP polypeptides; details: SEQ ID NO: 4 as compared to SEQ ID NO: 5
# [4] = system: GL261-CHI3L1 glioma; assay: Flow cytometry of immune cell populations in GL261-CHI3L1 glioma after peptide treatment; assay type: in vivo, mouse
# Experimental: Mice with neurological deficits or moribund appearance were sacrificed. Tumors were separated and homogenized for 15 min at 37° C. in Collagenase IV Cocktail (3.2 mg/mL collagenase type IV, 2 mg/mL soybean trypsin inhibitor, and 1.0 mg/mL deoxyribonuclease I; Worthington Biochemical). Red blood cells were lysed using ACK lysing buffer (Gibco). Cell suspensions were filtered through 70-μm strainers, centrifuged, and resuspended in cold FACS buffer (DPBS with 1% BSA) for further analysis.
# About 3×10^6 cells were used for each staining panel. Cells were incubated with 1.0 μg of TruStain fcX (BioLegend) for 10 min on ice to block Fc receptors, followed by staining with the combination of indicated antibodies. After staining, cells were washed with FACS buffer three times and incubated with Fixation Buffer (BioLegend) at RT for 20 min. Cells were washed with FACS buffer, resuspended in Cyto-Last Buffer (BioLegend), and analyzed by either a BD LSRFortessa or BD FACSAria II SORP. For CyTOF, samples were prepared as described above for flow cytometry. Three pairs of samples (scrambled shRNA vs Chi3l1 KD) with similar tumor sizes were chosen and the staining procedure was followed as previously described (Mitsialis V, et al., 2020). The samples were analyzed on a Helios2 CyTOF system (Fluidigm) at the Longwood Medical Area CyTOF Core. Additional information about flow cytometry antibodies is provided in the Supplementary Material and Methods section.
# [5] = system: GL261-CHI3L1 orthotopic tumors; assay: Peptide treatment of GL261-CHI3L1 orthotopic tumors (MRI, survival)
# Experimental: (§1) Male and female ICR SCID and C57BL/6 mice (4-6 weeks of age) were purchased from Taconic Biosciences and The Jackson Laboratory, respectively. The intracranial xenograft tumor models were established as previously described (Hu B et al., 2016). Cells in 5 μL DPBS were injected at the following numbers: TS543 vector control or CHI3L1 overexpression (OE), 1×10^4 cells; QPP7 scrambled control or CHI3L1 knockdown (KD), 1×10^5 cells; and GL261 vector control or CHI3L1 OE, 1×10^5 cells. […] For mice treated with peptides, 5 uL of 20 uM SCP or GMP was delivered into the mouse brain every 4 days with a total of seven times.
# (§2) MRI and bioluminescent imaging of mice were performed at Rangos Research Center Animal Imaging Core. The tumor size of mice detected by MRI was analyzed with ITK-SNAP.
# For intracranial xenograft tumor models treated with peptides, mice were implanted with a guide screw prior to intracranial injection. To install the screw, mice were anesthetized by intraperitoneal (IP) injection with ketamine/xylazine solution (1.75 mL of 100 mg/mL ketamine and 0.25 mL of 100 mg/mL xylazine in 8 mL sterile water) at a dosage of 100 μL/20 g body weight. The screw was covered by sealing the skin, and mice were allowed to recover for one week before intracranial implantation. GL261 cells overexpressing CHI3L1 (1×10^5) were injected in 5 μL of DPBS containing 20 μM of either scrambled control peptide (SCP) or Gal3BP mimetic peptide (GMP). SCP (20 μM) or GMP (20 μM) was subsequently given once every 3 days with a total of seven times by intracranial injection via the guide screw.
# (§3) All mice received general inhalation anesthesia with Isoflurane for in vivo brain imaging. […] Depth of anesthesia was monitored by toe reflex (extension of limbs, spine positioning) and respiration rate. […] Respiration was monitored using a pneumatic sensor placed between the animal bed and the mouse's abdomen, rectal temperature was measured with a fiberoptic sensor, and core temperature was maintained at 36.8±0.2° C. with a feedback-controlled warm air source (SA Instruments). […]
# [6] = system: QPP7 glioma; assay: Peptide treatment of orthotopic syngeneic QPP7 glioma (MRI, survival); details: orthotopic syngeneic mice bearing QPP7 glioma; local delivery into the brain; vs SCP
# Experimental: as §1, §2
# For intracranial xenograft tumor models treated with peptides, mice were implanted with a guide screw prior to intracranial injection. […]
# as §3
# [7] = GL261-CHI3L1 tumors, GMP in contrast to SCP
# [8] = GMP-treated vs SCP-treated tumors, GL261-CHI3L1 model
sequence,measurement,setting,value
TLDLSRELSEALGQI [GMP],"rCHI3L1-induced BMDM migration, dose dependence","[1]; M2 BMDMs, rCHI3L1 0.6 μg/mL, different concentrations of peptide, 6 hours",inhibits rCHI3L1-induced BMDM migration in a dose-dependent manner
same,rCHI3L1-promoted M2 BMDM migration,"[1]; rCHI3L1 0.6 μg/mL, peptide 30 μM, compared with SCP",significantly inhibited
same,rCHI3L1+rGal3-induced M0 BMDM migration,"[1]; rCHI3L1 2.5 μg/mL, rGal3 2.5 μg/mL, peptide 30 μM, in contrast to SCP",attenuated
same,binding of CHI3L1 and Gal3 (Co-IP),[2],decreasing binding of CHI3L1 and Gal3
same,inhibition of Gal3/CHI3L1,[3],increased inhibition
same,CD8+ cells,[4]; [7],significantly increased
same,T cells (CD3+),[4]; [7],significantly increased
same,"PD-L1 expression in CD45+, CD8+ and CD4+ cells",[4]; GMP treatment,only a decreasing trend
same,PD-L1 expression in glioma cells,[4]; GMP treatment,significantly decreased
same,CTLA-4 level in CD4+ T cells,[4]; GMP vs SCP,a trend of elevated levels
same,PD-1 level in CD4+ T cells,[4]; GMP vs SCP,a trend of elevated levels
same,CTLA-4 expression in CD8+ T cells,[4]; [8],significantly upregulated
same,PD-1 expression in CD8+ T cells,[4]; [8],significantly upregulated
same,"PD-L1 expression in CD45+, CD8+ immune cells, and glioma cells","[4]; preclinical mouse models, as restated in Example 8",significantly decrease
same,CD4+ cell population,[4]; tumors of C57BL/6 mice bearing GL261-CHI3L1,41.9±4.5%
same,M2-like TAMs,"[4]; tumors of C57BL/6 mice bearing GL261-CHI3L1, mean±SEM, P=0.0536",42.8±3.8%
same,M1-like TAMs,"[4]; tumors of C57BL/6 mice bearing GL261-CHI3L1, mean±SEM, P=0.0719",49.5±4.0%
same,tumor growth (T2 MRI),"[5]; C57BL/6 mice bearing GL261-CHI3L1, GMP compared to SCP",reduced tumor growth
same,median survival,"[5]; C57BL/6 mice bearing GL261-CHI3L1 orthotopic tumors, 20 μM peptide into brain tumor via guide screw",36 days
same,mouse survival,[6],increased mouse survival
same,tumor size,[6],decreased tumor size
